Reference: patent US8623429B2, “Stabilized anthocyanin compositions” (Omnica GmbH, priority 2007, dated 2014)

Key:
Format in all cases: physicochemical
[1] = Example 5: degradation over time of black currant anthocyanosides at 37° C., pH 7.0, with/without GSH (HPLC); conditions: pH 7.0, 37° C.; for %-residual anthocyanosides (% left): 4 hours
Method: Sample a) 60 mg black currant extract [35% anthocyanosides] (0.037 mmol anthocyanosides expressed as cyanidin-3-O-rutinoside) were added to a 100 ml flask, filled to volume with sodium phosphate buffer (5% [w/w], pH=7.0) and stirred until dissolution was complete. A 1 ml sample was taken immediately, acidified with formic acid to pH=1.0 and analyzed by HPLC for the content of anthocyanosides. The remaining solution was kept at 37° C. (water bath) with stirring and 1 ml samples (Blank Samples), representing unprotected degradation, were taken every 15 minutes. The samples were analyzed for selected anthocyanosides by HPLC.
Sample b) 20 mg reduced L-glutathione (0.065 mmol) were added to a 100 ml flask with 60 ml sodium phosphate buffer (5% [w/w], pH=7.0) and stirred until dissolution was complete. 60 mg black currant extract [35% anthocyanosides] (0.037 mmol anthocyanosides expressed as cyanidin-3-O-rutinoside) were added, the flask was filled to volume with sodium phosphate buffer (5% [w/w], pH=7.0) and kept for at 37° C. (water bath) with stirring. Every 15 minutes 1 ml samples were taken and analyzed for selected anthocyanosides by HPLC.
(§1) Samples were prepared as outlined below in HPLC Analytical Method. Test stability samples were immediately acidified (to block degradation) and injected undiluted following the detailed description provided below.

[2] = Example 1: stability of bilberry extract anthocyanosides, 4 hours at 37° C., pH 7.0, with/without DHLA or GSH (HPLC)
Method: (0.048 mmol anthocyanosides expressed as cyanidin-3-O-glucoside) were added to a 100 ml flask and filled to volume with sodium phosphate buffer (5% [w/w], pH=7.0), and stirred until dissolution was complete. A 1 ml sample was taken immediately and acidified with formic acid to pH=1.0 and analyzed by HPLC for the content of anthocyanosides (Fresh Sample). The remaining solution was kept for 4 hours at 37° C. (water bath) with stirring. Thereafter another sample (Blank sample), representing unprotected degradation, was taken and acidified.
(0.048 mmol expressed as cyanidin-3-O-glucoside) were then added and the flask was filled to volume with sodium phosphate buffer (5% [w/w], pH=7.0) and kept for 4 hours at 37° C. (water bath) with stirring.
After 4 hours, samples were taken and acidified immediately with formic acid to pH=1.0 and analyzed by HPLC for the content of anthocyanosides. Degradation is expressed as decrease in peak area of individual peaks (calculated as % left after 4 hours).
Quantitation: External standardization based on linear regression analysis. The response factors of all anthocyanosides separated is quantitified against cyanidin-3-O-glucoside.
Test solutions from incubation experiments (with/without cells and with/without stabilizing agents) were used for analysis after stabilization of anthocyanosides with formic acid. Samples were cleared by filtration prior to injection on to HPLC-system.

[3] = Example 9: stability of bilberry extract anthocyanosides, 4 hours at 37° C., pH 7.0, with/without L-cysteine
[4] = Example 3: stability of black currant extract anthocyanosides, 4 hours at 37° C., pH 7.0, with/without DHLA, GSH or L-cysteine (HPLC)
Method: Sample a) 60 mg black currant extract [35% anthocyanosides] (0.037 mmol anthocyanosides expressed as cyanidin-3-O-rutinoside) were added to a 100 ml flask and filled to volume with sodium phosphate buffer (5% [w/w], pH=7.0) and stirred until dissolution was complete. A 1 ml sample was taken immediately, acidified with formic acid to pH=1.0 and analyzed by HPLC for the content of anthocyanosides (Fresh Sample). The remaining solution was kept for 4 hours at 37° C. (water bath) with stirring. Thereafter samples (Blank sample), representing unprotected degradation, were taken and acidified.
Sample b) 20 mg reduced L-glutathione (0.065 mmol) were added to a 100 ml flask with 60 ml sodium phosphate buffer (5% [w/w], pH=7.0) and stirred until dissolution was complete. 60 mg black currant extract [35% anthocyanosides] (0.037 mmol anthocyanosides expressed as cyanidin-3-O-rutinoside) were then added and the flask was filled to volume with sodium phosphate buffer (5% [w/w], pH=7.0) and kept for 4 hours at 37° C. (water bath) with stirring.
Sample c) 20 mg dihydrolipoic acid (0.096 mmol) were added to a 100 ml flask with 60 ml sodium phosphate buffer (5% [w/w], pH=7.0) and stirred until dissolution was completed. 60 mg black currant extract [35% anthocyanosides] (0.037 mmol anthocyanosides expressed as cyanidin-3-O-rutinoside) were added to the flask, filled to volume with sodium phosphate buffer (5% [w/w], pH=7.0) and kept for 4 hours at 37° C. (water bath) with stirring.
Sample d) 20 mg L-cysteine acid (0.165 mmol) were added to a 100 ml flask with 60 ml sodium phosphate buffer (5% [w/w], pH=7.0) and stirred until dissolution was complete. 60 mg black currant extract [35% anthocyanosides] (0.037 mmol anthocyanosides expressed as cyanidin-3-O-rutinoside) were added to the flask, filled to volume with sodium phosphate buffer (5% [w/w], pH=7.0) and kept for 4 hours at 37° C. (water bath) with stirring.
After 4 hours samples were taken, acidified immediately with formic acid to pH=1.0 and analyzed by HPLC for the content of anthocyanosides. Degradation is expressed as decrease in peak area of individual peaks (calculated as % left after 4 hours).
as §1
HPLC Analytical Method (Materials, Instruments and Methods): […]

[5] = 20 mg reduced L-glutathione, pH 7.0, 37° C., 4 hours
[6] = 30 mg dihydrolipoic acid, pH 7.0, 37° C., 4 hours
[7] = unprotected, pH 7.0, 37° C., 4 hours

OC[C@H]1O[C@@H](Oc2cc3c(O)cc(O)cc3[o+]c2-c2cc(O)c(O)c(O)c2)[C@H](O)[C@@H](O)[C@@H]1O [Dp-3O-Glc, Delphinidin 3-o-glucoside]
Peak Area ([1]; Blank sample, 0:00 h): 1480.7 | Peak Area ([1]; Blank sample, 0:15 h): 969.6 | Peak Area ([1]; Blank sample, 0:30 h): 907.9 | Peak Area ([1]; Blank sample, 0:45 h): 745.2 | Peak Area ([1]; Blank sample, 1:00 h): 702.1 | Peak Area ([1]; Blank sample, 1:30 h): 605.4 | Peak Area ([1]; Blank sample, 1:45 h): 599.9 | Peak Area ([1]; Blank sample, 2:00 h): 465.1 | Peak Area ([1]; Blank sample, 2:15 h): 449.8 | Peak Area ([1]; Blank sample, 2:30 h): 394.0 | Peak Area ([1]; Blank sample, 2:45 h): 362.7 | Peak Area ([1]; Blank sample, 3:00 h): 304.8 | Peak Area ([1]; Blank sample, 3:15 h): 285.1 | Peak Area ([1]; Blank sample, 3:30 h): 208.8 | Peak Area ([1]; Blank sample, 3:45 h): 214.5 | Peak Area ([1]; Blank sample, 4:00 h): 140.8 | %-residual anthocyanosides (% left) ([1]; Blank): 10% | Peak Area ([1]; GSH protected sample (20 mg), 0:00 h): 1464.0 | Peak Area ([1]; GSH protected sample (20 mg), 0:15 h): 1280.4 | Peak Area ([1]; GSH protected sample (20 mg), 0:45 h): 1209.3 | Peak Area ([1]; GSH protected sample (20 mg), 1:00 h): 1219.0 | Peak Area ([1]; GSH protected sample (20 mg), 1:15 h): 1178.1 | Peak Area ([1]; GSH protected sample (20 mg), 1:45 h): 1051.8 | Peak Area ([1]; GSH protected sample (20 mg), 2:00 h): 1077.0 | Peak Area ([1]; GSH protected sample (20 mg), 2:15 h): 981.9 | Peak Area ([1]; GSH protected sample (20 mg), 2:45 h): 876.8 | Peak Area ([1]; GSH protected sample (20 mg), 3:00 h): 917.2 | Peak Area ([1]; GSH protected sample (20 mg), 3:15 h): 812.5 | Peak Area ([1]; GSH protected sample (20 mg), 3:45 h): 742.7 | Peak Area ([1]; GSH protected sample (20 mg), 4:00 h): 745.6 | Peak Area ([1]; GSH protected sample (20 mg), 4:15 h): 682.0 | %-residual anthocyanosides (% left) ([1]; GSH-protected): 51% | % left, GSH (4 hours) [2, 5]: 48.3% | Peak Area, GSH (4 hours) [2, 5]: 350.8 | % left, DHLA (4 hours) [2, 6]: 57.1% | Peak Area, DHLA (4 hours) [2, 6]: 414.8 | Peak Area, Fresh (0 hours) ([2]; bilberry extract 60 mg/100 ml sodium phosphate buffer pH 7.0, fresh sample): 726.6 | % left, Blank (4 hours) [2, 7]: 6.4% | Peak Area, Blank (4 hours) [2, 7]: 46.3 | Peak Area, Fresh solution ([3]; bilberry extract 60 mg in buffer pH 7.0, fresh sample): 726.6 | % left, L-cysteine 20 mg ([3]; pH 7.0, 37° C., 4 hours): 48.3% | Peak Area, L-cysteine 20 mg ([3]; pH 7.0, 37° C., 4 hours): 350.8 | % left, Blank [3, 7]: 6.4% | Peak Area, Blank [3, 7]: 46.3 | Peak Area, Fresh solution ([4]; black currant extract 60 mg/100 ml buffer pH 7.0, fresh sample): 1481 | % left, DHLA 20 mg ([4]; pH 7.0, 37° C., 4 hours): 52.0% | % left, GSH 20 mg ([4]; pH 7.0, 37° C., 4 hours): 50.4% | % left, L-cysteine 20 mg ([4]; pH 7.0, 37° C., 4 hours): 36.7% | Peak Area, DHLA 20 mg ([4]; pH 7.0, 37° C., 4 hours): 770.7 | Peak Area, GSH 20 mg ([4]; pH 7.0, 37° C., 4 hours): 745.6 | Peak Area, L-cysteine 20 mg ([4]; pH 7.0, 37° C., 4 hours): 543.0 | % left, Blank [4, 7]: 9.5% | Peak Area, Blank [4, 7]: 140.8
